These results are taken from US9493522B2, “Discovery of candidate biomarkers of in vivo apoptosis by global profiling of caspase cleavage sites” (THE REGENTS OF THE UNIVERSITY OF CALIFORNIA, priority 2008, dated 2016).

Residues, ends and D or L forms follow the SMILES beside them. *: point of attachment. Cbz = O=C(OCc1ccccc1)*; CH2F = FC*

Assay [1] deals with Jurkat cells. Nature of the assay: Immunoblotting of caspase substrate proteolysis during apoptosis. In kind it is cell-based, human. How it is done: Jurkat cells at a density of 1×10^6 cells/ml were treated with etoposide (50 μM) for 0, 2, 4, 8, 12, and 24 hours prior to harvesting. Harvested cells were pelleted at 2,000×g and 25° C. for 5 minutes, washed twice with phosphate buffered saline, and lysed at a concentration of 2×10^7 cells/ml in 1.0% SDS, phosphate buffered saline, 100 μM Z-VAD-FMK, 100 μM E-64, 1 mM PMSF, 1 mM AEBSF, 5 mM EDTA, and 10 mM sodium butyrate. Whole cell lysates were sonicated to shear genomic DNA, normalized to a protein concentration of approximately 2 mg/ml, as determined by BCA assay (Pierce). Cell lysates for each apoptotic timepoint were then analyzed by SDS-PAGE and Western blot. Mouse monoclonal anti-caspase-3 (#9668) and rabbit polyclonal anti-HDAC3 (#2632) antibodies were purchased from Cell Signaling Technology. Mouse monoclonal anti-DFF45 (#611036) antibody was purchased from BD Transduction Laboratories. Goat polyclonal anti-N-Cor (#sc-1611) and rabbit polyclonal anti-HDAC7 (#sc-11412) antibodies were purchased from Santa Cruz Biotechnology. Rabbit polyclonal anti-TBLR1 (#A300-408A), rabbit polyclonal anti-SHARP (#A301-119A), and rabbit polyclonal anti-RBBP7 (#A300-959A) antibodies were purchased from Bethyl Laboratories. Rabbit polyclonal anti-SMRTe (#06-891) antibody was purchased from Millipore. Western blots were imaged using SuperSignal West Femto Substrate (Pierce) with a Fluor Chem SP imager (Alpha Innotech). DNA fragmentation of whole cell DNA was analyzed by agarose gel with the Apoptotic DNA Ladder Kit (Roche).
(In general: In western blotting, separated proteins are transferred to a membrane and probed.)

Assay [2] has as its system Jurkat cells. Nature of the assay: Subtiligase N-terminal labeling and LC/MS/MS degradomic analysis of apoptotic Jurkat cells. In kind it is cell-based, human. The following applies: Jurkat cells treated with etoposide (50 μM, 12 hours).
Description: Normal cells were harvested for experiments at a density of 1×10^6 cells/ml. For apoptotic samples, cells at a density of 1×10^6 cells/ml were treated with etoposide (50 μM) for 12 hours prior to harvesting. Harvested cells (0.1 to 1 billion) were pelleted at 2,000×g and 25° C. for 5 minutes, washed twice with phosphate buffered saline, and lysed at a typical concentration of 2×10^8 cells/ml in 1.0% TRITON X-100 detergent, 100 mM BICINE pH 8.0, 100 μM Z-VAD-FMK, 100 μM E-64, 1 mM PMSF, 1 mM AEBSF, and 5 mM EDTA. […] Clarified supernatant was immediately used in ligation reactions at a protein concentration of approximately 20 mg/ml, as determined by Bradford assay (Bio-Rad).
Subtiligase (1 μM), biotinylated peptide ester (1 mM), and DTT (2 mM) were added to either control or apoptotic cell lysate. Ligation reactions were typically left to proceed at room temperature for 60 minutes. Samples were then denatured by direct addition of solid guanidine hydrochloride to a final concentration of 6 M, reduced by addition of neutralized TCEP (2 mM), heated at 95° C. for 15 minutes, cooled to room temperature, and alkylated by addition of iodoacetamide (6 mM) and incubation at room temperature in the dark for 1 hour. […]
Where [3] appears, read: Jurkat cells, 50 μM etoposide, FIG. 5A.

On to `COC(=O)C[C@H](NC(=O)[C@H](C)NC(=O)[C@@H](NC(=O)OCc1ccccc1)C(C)C)C(=O)CF` [Z-VAD(OMe)-fmk] (Cbz-Val-Ala-Asp(OMe)-CH2F), for which the “Cleavage of representative substrates HDAC7, Ku80, RCOR2, TBLR1, and UBP36 in presence of caspase inhibitor” value in assay [1] (etoposide-treated Jurkat cells, FIG. 5B) is recorded as “blocked”.
`COc1cc([C@@H]2c3cc4c(cc3[C@@H](O[C@@H]3O[C@@H]5CO[C@@H](C)O[C@H]5[C@H](O)[C@H]3O)[C@H]3COC(=O)[C@H]23)OCO4)cc(OC)c1O` [etoposide]: in assay [2] (large-scale (2D LC/MS/MS) experiments), the “N-termini identified in apoptotic cells derived from P1 aspartate cleavages” value turned out to be 43%. The “N-termini identified in apoptotic cells derived from P1 aspartate cleavages” value in assay [2] (small-scale (1D LC/MS/MS) experiments) is given as 43%. For the same compound, in assay [1] (setting [3]), the “Proteolysis of CCTδ, Ku80, LCOR, and RBBP7 (time course, immunoblot)” value was “partial cleavage”; the “Proteolysis of HDAC6, HDAC7, N-CoR, RCOR2, SHARP, TBLR1, UBP5, and UBP36 (time course, immunoblot)” value is recorded as “full cleavage”.
